The nature of data set [1]: Solubilities of molsidomine in various solvents (saturation at 32° C., HPLC). The format is physicochemical.
Protocol: Molsidomine powder was weighed on weighing paper and transferred into the sample vial. Solvent was transferred into the vial followed by insertion of a small Teflon-coated magnetic stirring bar. The sample vial was screw-capped and placed on top of a multiple stirring system obtained from Florida Scientific, Inc. and housed in an incubation oven at 32° C. The sample solutions were examined for saturation. More molsidomine was added to the solutions until saturation was achieved.
The saturated solutions were filtered through a micro filter to remove excess solid molsidomine. The filtered samples were then assayed for molsidomine concentration by the HPLC analytical method.
In this way, the solubility of molsidomine in the particular vehicle(s) was estimated.
For data set [2] the following is noted: cited from earlier work.
Data set [3] deals with human cadaver epidermis. Conditions: pH 6.8.
For data set [4] the following is noted: cited from earlier work. This is another data set of the same source.
Data set [5] deals with patients with coronary heart disease. Conditions: cited from earlier work.
For data set [6] the following is noted: oral dose of 2 mg; cited from earlier work.
The subject of a further data set is coronary strips. Conditions: cited from earlier work; for dependence of vasodilation action on cysteine: presence / absence of cysteine.
For data set [7] the following is noted: in vivo; cited from earlier work.
Data set [8] has as its system soluble guanylate cyclase. Conditions: by nitric oxide liberated from the active metabolite SIN-1A; cited from earlier work.
For another data set, the system named is human skin. Conditions: in vivo; cited from earlier work.
In data set [9] the test system is human cadaver epidermis. As to the kind of experiment: Skin flux through human cadaver epidermis (modified Franz vertical diffusion cell, 32° C).

Converted amounts (≈) assume the structure as drawn. “Also recorded” adds a separate entry of the source. Read-outs that look alike come from different tables or passages of the source.

With `CCOC(=O)[N-]c1cn(N2CCOCC2)n[o+]1` [Molsidomine, N-5-ethoxycarbonyl-3-morpholinosydnonimine], the solubility is 12.3 ± 1.8 mg/mL (≈ 50.8 mM) in data set [1] (aqueous buffer, Phosphate buffer pH 5.68, read-out: Solubilities); 85.5 ± 3.9 mg/mL (≈ 353 mM) in data set [1] (organic solvent or mixture, Propylene Glycol (PG), read-out: Solubilities); approximately 90 mg/mL (≈ 372 mM) in [1] (organic solvent or mixture, propylene glycol and propylene glycol with 10% of oleic acid, lauryl alcohol or PGML, read-out: solubility); 12.1 ± 1.3 mg/mL (≈ 50 mM) in [1] (pH 6.8, aqueous buffer, Phosphate buffer pH 6.80, read-out: Solubilities); 89.3 ± 1.5 mg/mL (≈ 369 mM) in [1] (propylene glycol:lauryl alcohol (10%), organic solvent or mixture, PG:Lauryl Alcohol (10%), read-out: Solubilities); 88.1 ± 0.7 mg/mL (≈ 364 mM) in [1] (propylene glycol:oleic acid (10%), organic solvent or mixture, PG:Oleic Acid (10%), read-out: Solubilities). In data set [1] (propylene glycol:pgml (10%), organic solvent or mixture, PG:PGML (10%), read-out: Solubilities), the solubility is 92.9 ± 2.8 mg/mL (≈ 384 mM). Also, the Saturated solubility is on record as 1.80% in [2] (Glycerin, 25° C.); 15.1% in data set [2] (Glycol salicylate, 25° C.); 0.09% in data set [2] (Isopropyl myristate, 25° C.); 0.36% in data set [2] (Octyl.decyl oil, 25° C.); 1.37% in data set [2] (Oleic Acid, 25° C.); 5.23% in data set [2] (PEG 400, 25° C.). Besides, the “Solubility (in words)” value in [2] (in CHCl3) is “Freely soluble”; in data set [2] (in dil HCl, ethanol, ethyl acetate and methanol), “Soluble”; in [2] (in ether, petr ether), “very slightly soluble”; in data set [2] (in propylene glycol and a variety of organic solvents), “soluble”; in data set [2] (in water, acetone, benzene) it was “sparingly soluble”. In the data set on human cadaver epidermis [3], the “skin flux from aqueous solution” value amounted to 9.7±1.9 μg/hr-cm^2. Besides, the “Chemical stability (in words)” value in data set [4] (aqueous solution of pH 5 to 7) is given as “very stable; also recorded: most stable”. Besides, the t90 is given as 38 days in data set [4] (pH 1-2, 20° C.); 250 days in data set [4] (pH 4, 20° C.); 950 days in data set [4] (pH 5-7, 20° C.); 400 days in [4] (pH 10, 20° C.); 40 days in [4] (pH 11, 20° C.). Further, the Photosensitivity result in data set [4] (particularly in sunlight) is recorded as “photosensitive”. For the same compound, the “treatment and prevention of anginal pectoris” value in data set [5] (daily oral dosing of 2 mg for 3 to 4 times, clinical studies) is recorded as “effective”. Moreover, the anti-anginal effect entry in data set [5] (human, in vivo) is listed as “sustained anti-anginal effect”. Further, in data set [5] (single oral dose of 2 mg, patients with coronary heart disease), the “duration of anti-anginal effects” value was 3 to 5 h. Further, the total clearance in data set [6] was 46,000 ml/hr. For the same compound, the tolerance entry in the data set on coronary strips is “insignificant tolerance”. Also, the metabolism entry in data set [7] is “can be metabolized to SIN-1”.

On to `N#CCN(N=O)N1CCOCC1` [SIN-1A], for which the “dependence of vasodilation action on cysteine” value with coronary strips is “active in both the presence and absence of cysteine”. Moreover, the “activation of soluble guanylate cyclase” value in data set [8] is listed as “activates the soluble guanylate cyclase”.

Regarding `CCCCCCCCCCCCOP(=O)(O)O` [mono-dodecyl phosphate (DDPO4), phosphoric acid mono-dodecyl ester], the “human skin irritation potential” value with human skin is “very low human skin irritation potential”. Besides, the “permeation enhancement of molsidomine (increment of skin flux)” value in the data set on human cadaver epidermis [9] (addition of 10% DDPO4 to PGML, FIG. 3) is listed as “four times increment”. For the same compound, the “pirsidomine skin permeation enhancement” value with human cadaver epidermis [9] (pirsidomine) is recorded as “showed pirsidomine skin permeation enhancement”.

Regarding `O=[N+]([O-])OCC(CO[N+](=O)[O-])O[N+](=O)[O-]` [nitroglycerin], in the data set on coronary strips, the tolerance entry is on record as “tolerance toward the drug developed in coronary strips can be antagonized by cysteine” and the “dependence of vasodilation action on cysteine” value is on record as “depends on the presence of cysteine”.

(Values after patent US5308625A, “Enhancement of transdermal drug delivery using monoalkyl phosphates and other absorption promoters” (priority 1992, dated 1994).)
